Source: ChEMBL document CHEMBL2150986, “Synthesis and biological evaluation of 1-benzylidene-3,4-dihydronaphthalen-2-one as a new class of microtubule-targeting agents” (J Med Chem, 2012)
pIC50: −log10 of the molar value.

Experiments:
CCRF-CEM = test: Cytotoxicity against human CEM cells after 72 hrs by MTT assay; assay type: functional, cell-based
Tubulin = Tubulin (Sus scrofa, UniProt P02554+P02550); test: Inhibition of porcine brain tubulin assembly measured every 1 min for 60 mins by turbidimetric analysis
HCT-116 [1] = test: cells; details: Homo sapiens, HCT-116, 72 h
MDA-MB-435 = test: cells; details: Homo sapiens, MDA-MB-435, 72 h
Description: Cytotoxicity against human MDA-MB-435 cells after 72 hrs by MTT assay

K562 = test: Cytotoxicity against human K562 cells after 72 hrs by MTT assay; assay type: functional, cell-based; details: K562, 72 h
HT-29 [2] = test: Cytotoxicity against human HT-29 cells after 72 hrs by MTT assay; assay type: functional, cell-based; details: HT-29, 72 h
HCT-116 [3] = test: Cell cycle arrest in human HCT116 cells assessed as increase in accumulation at G2/M phase after 24 hrs by FACS flow cytometry; assay type: functional, cell-based
ZR-75-30 = test: Cytotoxicity against human ZR75-30 cells after 72 hrs by MTT assay; assay type: functional, cell-based; details: ZR-75-30, 72 h
HCT-116 [4] = test: Cell cycle arrest in human HCT116 cells assessed as decrease in accumulation at G1 phase after 24 hrs by FACS flow cytometry; assay type: functional, cell-based
HCT-116 [5] = test: Cell cycle arrest in human HCT116 cells assessed as decrease in accumulation at S phase after 24 hrs by FACS flow cytometry; assay type: functional, cell-based
HCT-116 [6] = test: Cell cycle arrest in human HCT116 cells assessed as accumulation at G2/M phase at 0.2 uM after 24 hrs by FACS flow cytometry (reference value: 13 %); assay type: functional
HCT-116 [7] = test: Cell cycle arrest in human HCT116 cells assessed as accumulation at G2/M phase at 2 uM after 24 hrs by FACS flow cytometry; assay type: functional
Mus musculus [8] = test: Toxicity in nude BALB/c mouse xenografted with human HT-29 cells assessed as mortality at 100 mg/kg, ip qd after 21 days; assay type: organism-based; parameters: dose 100 mg/kg, route intraperitoneal; details: in vivo, 504 h
Mus musculus [9] = test: Toxicity in nude BALB/c mouse xenografted with human HT-29 cells assessed as mortality at 150 mg/kg, ip qd after 21 days; assay type: organism-based; parameters: dose 150 mg/kg, route intraperitoneal; details: in vivo, 504 h
Mus musculus [10] = test: Toxicity in nude BALB/c mouse xenografted with human HT-29 cells assessed as mortality at 300 mg/kg, ip qd after 21 days; assay type: organism-based; parameters: dose 300 mg/kg, route intraperitoneal; details: in vivo, 504 h
HT-29 [11] = test: Antitumor activity against human HT-29 cells xenografted in nude BALB/c mouse assessed as decrease in tumor volume at 100 mg/kg, ip qd measured on day 21 relative to vehicle-treated control; assay type: functional; details: route intraperitoneal
HT-29 [12] = test: Antitumor activity against human HT-29 cells xenografted in nude BALB/c mouse assessed as decrease in tumor volume at 150 mg/kg, ip qd measured on day 21 relative to vehicle-treated control; assay type: functional; details: route intraperitoneal
HT-29 [13] = test: Antitumor activity against human HT-29 cells xenografted in nude BALB/c mouse assessed as decrease in tumor volume at 300 mg/kg, ip qd measured on day 21 relative to vehicle-treated control; assay type: functional; details: route intraperitoneal
Mus musculus [14] = test: Toxicity in nude BALB/c mouse xenografted with human HT-29 cells assessed as body weight change at 100 mg/kg, ip qd after 21 days (reference value: 2.7 g); assay type: organism-based; parameters: dose 100 mg/kg, route intraperitoneal; details: in vivo, 504 h
Mus musculus [15] = test: Toxicity in nude BALB/c mouse xenografted with human HT-29 cells assessed as body weight change at 150 mg/kg, ip qd after 21 days (reference value: 2.7 g); assay type: organism-based; parameters: dose 150 mg/kg, route intraperitoneal; details: in vivo, 504 h
Mus musculus [16] = test: Toxicity in nude BALB/c mouse xenografted with human HT-29 cells assessed as body weight change at 300 mg/kg, ip qd after 21 days (reference value: 2.7 g); assay type: organism-based; parameters: dose 300 mg/kg, route intraperitoneal; details: in vivo, 504 h
Mus musculus [17] = test: Toxicity in nude BALB/c mouse xenografted with human HT-29 cells assessed as effect on WBC count at 100 mg/kg, ip qd after 21 days (reference value: 25.38 +/- 0.22 x 10^3 mm'-3); assay type: organism-based; parameters: dose 100 mg/kg, route intraperitoneal; details: in vivo, 504 h
Mus musculus [18] = test: Toxicity in nude BALB/c mouse xenografted with human HT-29 cells assessed as effect on WBC count at 150 mg/kg, ip qd after 21 days (reference value: 25.38 +/- 0.22 x 10^3 mm'-3); assay type: organism-based; parameters: dose 150 mg/kg, route intraperitoneal; details: in vivo, 504 h
Mus musculus [19] = test: Toxicity in nude BALB/c mouse xenografted with human HT-29 cells assessed as effect on WBC count at 300 mg/kg, ip qd after 21 days (reference value: 25.38 +/- 0.22 x 10^3 mm'-3); assay type: organism-based; parameters: dose 300 mg/kg, route intraperitoneal; details: in vivo, 504 h
Mus musculus [20] = test: Toxicity in nude BALB/c mouse xenografted with human HT-29 cells assessed as effect on lymphocyte count at 100 mg/kg, ip qd after 21 days (reference value: 15.88 +/- 0.41 x 10^3 mm'-3); assay type: organism-based; parameters: dose 100 mg/kg, route intraperitoneal; details: in vivo, 504 h
Mus musculus [21] = test: Toxicity in nude BALB/c mouse xenografted with human HT-29 cells assessed as effect on lymphocyte count at 150 mg/kg, ip qd after 21 days (reference value: 15.88 +/- 0.41 x 10^3 mm'-3); assay type: organism-based; parameters: dose 150 mg/kg, route intraperitoneal; details: in vivo, 504 h
Mus musculus [22] = test: Toxicity in nude BALB/c mouse xenografted with human HT-29 cells assessed as effect on lymphocyte count at 300 mg/kg, ip qd after 21 days (reference value: 15.88 +/- 0.41 x 10^3 mm'-3); assay type: organism-based; parameters: dose 300 mg/kg, route intraperitoneal; details: in vivo, 504 h
Mus musculus [23] = test: Toxicity in nude BALB/c mouse xenografted with human HT-29 cells assessed as effect on platelet count at 100 mg/kg, ip qd after 21 days (reference value: 1509 +/- 34 x 10^3 mm'-3); assay type: organism-based; parameters: dose 100 mg/kg, route intraperitoneal; details: in vivo, 504 h
Mus musculus [24] = test: Toxicity in nude BALB/c mouse xenografted with human HT-29 cells assessed as effect on platelet count at 150 mg/kg, ip qd after 21 days (reference value: 1509 +/- 34 x 10^3 mm'-3); assay type: organism-based; parameters: dose 150 mg/kg, route intraperitoneal; details: in vivo, 504 h
Mus musculus [25] = test: Toxicity in nude BALB/c mouse xenografted with human HT-29 cells assessed as effect on platelet count at 300 mg/kg, ip qd after 21 days (reference value: 1509 +/- 34 x 10^3 mm'-3); assay type: organism-based; parameters: dose 300 mg/kg, route intraperitoneal; details: in vivo, 504 h
Mus musculus [26] = test: Toxicity in nude BALB/c mouse xenografted with human HT-29 cells assessed as effect on ALT level at 100 mg/kg, ip qd after 21 days (reference value: 28 +/- 0.4 IU/L); assay type: organism-based; parameters: dose 100 mg/kg, route intraperitoneal; details: in vivo, 504 h
Mus musculus [27] = test: Toxicity in nude BALB/c mouse xenografted with human HT-29 cells assessed as effect on ALT level at 150 mg/kg, ip qd after 21 days (reference value: 28 +/- 0.4 IU/L); assay type: organism-based; parameters: dose 150 mg/kg, route intraperitoneal; details: in vivo, 504 h
Mus musculus [28] = test: Toxicity in nude BALB/c mouse xenografted with human HT-29 cells assessed as effect on ALT level at 300 mg/kg, ip qd after 21 days (reference value: 28 +/- 0.4 IU/L); assay type: organism-based; parameters: dose 300 mg/kg, route intraperitoneal; details: in vivo, 504 h
Mus musculus [29] = test: Toxicity in nude BALB/c mouse xenografted with human HT-29 cells assessed as effect on ALP level at 100 mg/kg, ip qd after 21 days (reference value: 107.6 +/- 0.8 IU/L); assay type: organism-based; parameters: dose 100 mg/kg, route intraperitoneal; details: in vivo, 504 h
Mus musculus [30] = test: Toxicity in nude BALB/c mouse xenografted with human HT-29 cells assessed as effect on ALP level at 150 mg/kg, ip qd after 21 days (reference value: 107.6 +/- 0.8 IU/L); assay type: organism-based; parameters: dose 150 mg/kg, route intraperitoneal; details: in vivo, 504 h
Mus musculus [31] = test: Toxicity in nude BALB/c mouse xenografted with human HT-29 cells assessed as effect on ALP level at 300 mg/kg, ip qd after 21 days (reference value: 107.6 +/- 0.8 IU/L); assay type: organism-based; parameters: dose 300 mg/kg, route intraperitoneal; details: in vivo, 504 h
Mus musculus [32] = test: Toxicity in nude BALB/c mouse xenografted with human HT-29 cells assessed as change in kidney morphology at 100 to 300 mg/kg, ip qd after 21 days relative to vehicle-treated control; assay type: organism-based; parameters: dose 100-300 mg/kg, route intraperitoneal; details: in vivo, 504 h
Mus musculus [33] = test: Toxicity in nude BALB/c mouse xenografted with human HT-29 cells assessed as change in liver morphology at 100 to 300 mg/kg, ip qd after 21 days relative to vehicle-treated control; assay type: organism-based; parameters: dose 100-300 mg/kg, route intraperitoneal; details: in vivo, 504 h
Mus musculus [34] = test: Toxicity in nude BALB/c mouse xenografted with human HT-29 cells assessed as change in spleen morphology at 100 to 300 mg/kg, ip qd after 21 days relative to vehicle-treated control; assay type: organism-based; parameters: dose 100-300 mg/kg, route intraperitoneal; details: in vivo, 504 h
HT-29 [35] = test: Antitumor activity against human HT-29 cells xenografted in ip dosed nude BALB/c mouse assessed as decrease in tumor volume administered as qd measured on day 21; assay type: functional, organism-based
Mus musculus [36] = test: Toxicity in ICR mouse assessed as mortality at 150 to 600 mg/kg, ip administered on day 1; assay type: organism-based; parameters: dose 150-600 mg/kg, route intraperitoneal; details: in vivo
Mus musculus [37] = test: Toxicity in ICR mouse assessed as body weight loss at 600 mg/kg, ip administered on day 1 measured for 10 days relative to vehicle-treated control; assay type: organism-based; parameters: dose 600 mg/kg, route intraperitoneal; details: in vivo, 240 h

## COc1ccc(/C=C2/C(=O)CCc3cc(OC)ccc32)cc1
CCRF-CEM
  pIC50: 6.96
Tubulin
  IC50: 25820 nM
HCT-116 [1]
  pIC50: 6.07
MDA-MB-435
  pIC50: 6.68

## COc1ccc2c(c1)/C(=C\c1cc(OC)c(OC)c(OC)c1)C(=O)CC2
CCRF-CEM
  pIC50: 9.00
Tubulin
  IC50: 9630 nM
HCT-116 [1]
  pIC50: 6.29
MDA-MB-435
  pIC50: 6.47

## COc1cc(/C=C2/C(=O)CCc3cc(OC)ccc32)cc(OC)c1
CCRF-CEM
  pIC50: 7.11
Tubulin
  IC50: 6880 nM
HCT-116 [1]
  pIC50: 6.82
MDA-MB-435
  pIC50: 6.41

## COc1ccc2c(c1)CCC(=O)/C2=C/c1ccc(OC)c(OC)c1
CCRF-CEM
  pIC50: 7.14
Tubulin
  IC50: 6420 nM
HCT-116 [1]
  pIC50: 6.89
MDA-MB-435
  pIC50: 6.70

## COc1ccc2c(c1)CCC(=O)/C2=C/c1ccc(OC)c(OC)c1OC
CCRF-CEM
  pIC50: 6.07
Tubulin
  IC50: 25780 nM
HCT-116 [1]
  pIC50: 5.77
MDA-MB-435
  pIC50: 6.02

## COc1ccc2c(c1)CCC(=O)/C2=C/c1cc(OC)c(OC)c(OC)c1
CCRF-CEM
  pIC50: 9.00
K562
  pIC50: 9.00
HT-29 [2]
  pIC50: 8.00
HCT-116 [3]
  Activity: Dose-dependent effect
ZR-75-30
  pIC50: 8.00
Tubulin
  IC50: 3930 nM
HCT-116 [4]
  Activity: Dose-dependent effect
HCT-116 [5]
  Activity: Dose-dependent effect
HCT-116 [6]
  Activity: 17%
HCT-116 [7]
  Activity: 74%
Mus musculus [8]
  Activity: Non-toxic
Mus musculus [9]
  Activity: Non-toxic
Mus musculus [10]
  Activity: Non-toxic
HT-29 [11]
  T/C: 52%
HT-29 [12]
  T/C: 45%
HT-29 [13]
  T/C: 34%
Mus musculus [14]
  Activity: 2.3 g
Mus musculus [15]
  Activity: 3 g
Mus musculus [16]
  Activity: 2.6 g
Mus musculus [17]
  Activity: 24.42 ×10³ /mm3
Mus musculus [18]
  Activity: 20.18 ×10³ /mm3
Mus musculus [19]
  Activity: 19.96 ×10³ /mm3
Mus musculus [20]
  Activity: 11.08 ×10³ /mm3
Mus musculus [21]
  Activity: 10.03 ×10³ /mm3
Mus musculus [22]
  Activity: 8.87 ×10³ /mm3
Mus musculus [23]
  Activity: 1440 ×10³ /mm3
Mus musculus [24]
  Activity: 1375 ×10³ /mm3
Mus musculus [25]
  Activity: 1240 ×10³ /mm3
Mus musculus [26]
  Activity: 24 IU/L
Mus musculus [27]
  Activity: 28 IU/L
Mus musculus [28]
  Activity: 26 IU/L
Mus musculus [29]
  Activity: 112 IU/L
Mus musculus [30]
  Activity: 116.3 IU/L
Mus musculus [31]
  Activity: 107.6 IU/L
Mus musculus [32]
  Activity: Non-toxic
Mus musculus [33]
  Activity: Non-toxic
Mus musculus [34]
  Activity: Non-toxic
HT-29 [35]
  Activity: Dose-dependent effect
Mus musculus [36]
  Activity: Non-toxic
Mus musculus [37]
  Activity: Non-toxic
HCT-116 [1]
  pIC50: 7.00
MDA-MB-435
  pIC50: 9.00
